Reference: patent US5843449A, “Proteins and novel peptides derived from autoantigen for use in immunotherapy of autoimmune diseases” (Akzo Nobel N.V., priority 1996, dated 1998)
Like-named read-outs stand apart in the source and are kept apart here. Residues, ends and D or L forms follow the SMILES beside them.

Columns and labels:
[1] = target: DR4Dw14 HLA-DR molecules; assay: HLA-DR peptide binding assay (competition with biotinylated marker peptide), DR4Dw14; set-up: species or system human; details: pH = 5, 50 nM biotin-spacer-IHA(307-319)F marker peptide
[2] = target: T1, DR4Dw4 (DRB1*0401) HLA-DR molecules (Homo sapiens, UniProt P01903+P01911, A100K/A169T/F76Y/I96L/K127E/L162R/M171V/N62H/P40V/Q125Y/R42H/S133A/S149N/S66Y/V115G/V209L/W38E); assay: HLA-DR peptide binding assay (competition with biotinylated marker peptide), DR4Dw4; details: pH = 5, 50 nM biotin-spacer-IHA(307-319)F marker peptide
T1 construct: endogenous in cells; host or cells: BSM, EBV-transformed B-cell line

[3] = tested on: PBMC from healthy donors; assay: Proliferative responses of PBMC from healthy donors (3H-thymidine); type: cell-based, human; details: 10% autologous serum
Method: PBMC's from healthy donors carrying the DR4Dw4 (DRB1*0401) or the DR1 specificity were collected as a control.
(§1) PBMC obtained from heparinized venous peripheral blood were isolated by standard centrifugation on a Ficoll-Paque gradient. […] Cultures were incubated in a total volume of 210 μl for 7 days at 37° C. in a humidified atmosphere of 5% CO2. Cultures were pulsed during the last 18 hours with 0.25 μCi^3 H-thymidine.

[4] = tested on: PBMC from RA patients; assay: Proliferative responses of PBMC from RA patients (3H-thymidine); type: cell-based, human; details: 10% autologous serum
Method: Peripheral blood mononuclear cells (PBMC) from patients who were diagnosed as suffering from RA according to the American Rheumatism Association (ARA) criteria (Arnett et al., Arthritis Rheum. 31:315, 1988) were collected.
as §1

CC(C)C[C@H](NC(=O)[C@@H](NC(=O)[C@H](Cc1ccccc1)NC(=O)[C@H](CO)NC(=O)[C@@H](N)CCCNC(=N)N)[C@@H](C)O)C(=O)N[C@@H](C)C(=O)N[C@@H](CO)C(=O)N[C@@H](CO)C(=O)N[C@@H](CCC(=O)O)C(=O)N[C@H](C(=O)NCC(=O)N[C@H](C(=O)NCC(=O)O)C(C)C)[C@@H](C)O [Peptide 2] (H-RSFTLASSETGVG-OH)
IC50 ([1]; DOT Blot, densitometer, read-out: ^R IC50, DR4Dw14, DOT Blot): 190 nM | IC50 ([1]; SDS-PAGE, visual inspection, read-out: ^R IC50, DR4Dw14, SDS-PAGE): 200 nM | IC50 ([2]; DOT Blot, densitometer, read-out: ^R IC50, DR4Dw4, DOT Blot): 80 nM | IC50 ([2]; SDS-PAGE, visual inspection, read-out: ^R IC50, DR4Dw4, SDS-PAGE): 40 nM | Proliferative response, stimulation index (SI) ([3]; healthy donor 155-03 (NR), peptide 10 μg/ml): 1 | Proliferative response, stimulation index (SI) ([3]; healthy donor 155-03 (NR), peptide 100 μg/ml): 1 | Proliferative response, stimulation index (SI) ([3]; healthy donor 156-03 (NR), peptide 10 μg/ml): 1 | Proliferative response, stimulation index (SI) ([3]; healthy donor 156-03 (NR), peptide 100 μg/ml): < 1 | Proliferative response, stimulation index (SI) ([3]; healthy donor 157-03 (NR), peptide 10 μg/ml): < 2 | Proliferative response, stimulation index (SI) ([3]; healthy donor 157-03 (NR), peptide 100 μg/ml): < 2 | Proliferative response, stimulation index (SI) ([3]; healthy donor 157-04 (R), peptide 10 μg/ml): 1 | Proliferative response, stimulation index (SI) ([3]; healthy donor 157-04 (R), peptide 100 μg/ml): < 1 | Proliferative response, stimulation index (SI) ([3]; healthy donor 168-03 (NR), peptide 10 μg/ml): < 1 | Proliferative response, stimulation index (SI) ([3]; healthy donor 168-03 (NR), peptide 100 μg/ml): < 1 | Proliferative response, stimulation index (SI) ([3]; healthy donor 168.02 (NR), peptide 10 μg/ml): < 2 | Proliferative response, stimulation index (SI) ([3]; healthy donor 168.02 (NR), peptide 100 μg/ml): < 1 | Proliferative response, stimulation index (SI) ([3]; healthy donor 169-02 (NR), peptide 10 μg/ml): 1 | Proliferative response, stimulation index (SI) ([3]; healthy donor 169-02 (NR), peptide 100 μg/ml): 1 | Proliferative response, stimulation index (SI) ([3]; healthy donor 230-01 (NR), peptide 10 μg/ml): 1 | Proliferative response, stimulation index (SI) ([3]; healthy donor 230-01 (NR), peptide 100 μg/ml): 1 | Proliferative response, stimulation index (SI) ([3]; healthy donor 235-0 (NR), peptide 10 μg/ml): 1 | Proliferative response, stimulation index (SI) ([3]; healthy donor 235-0 (NR), peptide 100 μg/ml): < 2 | Proliferative response, stimulation index (SI) ([3]; healthy donor 235-01 (NR), peptide 10 μg/ml): < 1 | Proliferative response, stimulation index (SI) ([3]; healthy donor 235-01 (NR), peptide 100 μg/ml): < 1 | Proliferative response, stimulation index (SI) ([3]; healthy donor 236-01 (NR), peptide 10 μg/ml): 1 | Proliferative response, stimulation index (SI) ([3]; healthy donor 236-01 (NR), peptide 100 μg/ml): 1 | Proliferative response, stimulation index (SI) ([3]; healthy donor 237-0 (NR), peptide 10 μg/ml): < 2 | Proliferative response, stimulation index (SI) ([3]; healthy donor 237-0 (NR), peptide 100 μg/ml): < 1 | Proliferative response, stimulation index (SI) ([3]; healthy donor 237-01 (NR), peptide 10 μg/ml): 1 | Proliferative response, stimulation index (SI) ([3]; healthy donor 237-01 (NR), peptide 100 μg/ml): 1 | Proliferative response, stimulation index (SI) ([3]; healthy donor 238-01 (NR), first line so labelled, peptide 10 μg/ml): 1 | Proliferative response, stimulation index (SI) ([3]; healthy donor 238-01 (NR), first line so labelled, peptide 100 μg/ml): < 1 | Proliferative response, stimulation index (SI) ([3]; healthy donor 238-01 (NR), second line so labelled, peptide 10 μg/ml): 1 | Proliferative response, stimulation index (SI) ([3]; healthy donor 238-01 (NR), second line so labelled, peptide 100 μg/ml): 1 | Proliferative response, stimulation index (SI) ([3]; healthy donor 241-0 (NR), peptide 10 μg/ml): 1 | Proliferative response, stimulation index (SI) ([3]; healthy donor 241-0 (NR), peptide 100 μg/ml): < 1 | Proliferative response, stimulation index (SI) ([3]; healthy donor 241-01 (R), peptide 10 μg/ml): < 1 | Proliferative response, stimulation index (SI) ([3]; healthy donor 241-01 (R), peptide 100 μg/ml): < 1 | Proliferative response, stimulation index (SI) ([4]; RA patient 191-03 (HR), disease state IV, peptide 10 μg/l): 1 | Proliferative response, stimulation index (SI) ([4]; RA patient 191-03 (HR), disease state IV, peptide 100 μg/l): < 2 | Proliferative response, stimulation index (SI) ([4]; RA patient 215-0 (HR), disease state III-IV, peptide 25 μg/l): 3 | Proliferative response, stimulation index (SI) ([4]; RA patient 215-0 (HR), disease state III-IV, peptide 100 μg/l): 19 | Proliferative response, stimulation index (SI) ([4]; RA patient 240-0 (HR), disease state II-III, peptide 25 μg/l): 5 | Proliferative response, stimulation index (SI) ([4]; RA patient 240-0 (HR), disease state II-III, peptide 100 μg/l): 6 | Proliferative response, stimulation index (SI) ([4]; RA patient 242-0 (HR), disease state I, peptide 25 μg/l): 4 | Proliferative response, stimulation index (SI) ([4]; RA patient 243-0 (R), disease state III, peptide 10 μg/l): 1 | Proliferative response, stimulation index (SI) ([4]; RA patient 243-0 (R), disease state III, peptide 100 μg/l): 6 | Proliferative response, stimulation index (SI) ([4]; RA patient 247-0 (R), disease state III, peptide 10 μg/l): 1 | Proliferative response, stimulation index (SI) ([4]; RA patient 247-0 (R), disease state III, peptide 100 μg/l): 2 | Proliferative response, stimulation index (SI) ([4]; RA patient 248-0 (R), disease state III, peptide 10 μg/l): 1 | Proliferative response, stimulation index (SI) ([4]; RA patient 248-0 (R), disease state III, peptide 100 μg/l): 1 | Proliferative response, stimulation index (SI) ([4]; RA patient 272-0 (HR), disease state III-IV, peptide 10 μg/l): < 1 | Proliferative response, stimulation index (SI) ([4]; RA patient 272-0 (HR), disease state III-IV, peptide 100 μg/l): < 1 | Proliferative response, stimulation index (SI) ([4]; RA patient 273-0 (HR), disease state IV, peptide 10 μg/l): 7 | Proliferative response, stimulation index (SI) ([4]; RA patient 273-0 (HR), disease state IV, peptide 100 μg/l): 6 | Proliferative response, stimulation index (SI) ([4]; RA patient 275-0 (HR), disease state III, peptide 10 μg/l): 2 | Proliferative response, stimulation index (SI) ([4]; RA patient 275-0 (HR), disease state III, peptide 100 μg/l): 9 | Proliferative response, stimulation index (SI) ([4]; RA patient 276-0 (HR), disease state IV, burnt out, peptide 10 μg/l): 3 | Proliferative response, stimulation index (SI) ([4]; RA patient 276-0 (HR), disease state IV, burnt out, peptide 100 μg/l): 1 | Proliferative response, stimulation index (SI) ([4]; RA patient 280-0 (HR), disease state IV, burnt out, peptide 10 μg/l): 1 | Proliferative response, stimulation index (SI) ([4]; RA patient 280-0 (HR), disease state IV, burnt out, peptide 100 μg/l): 4
